Tests used:
Test in all cases: relative viability (nuclei count vs DMSO), 5 days (fraction); higher = more cells survive
[1] = compound: O=C(CCCCCCNC(=O)c1cnc(N(c2ccccc2)c2ccccc2)nc1)NO [Ricolinostat] + CC(=O)c1c(C)c2cnc(Nc3ccc(N4CCNCC4)cn3)nc2n(C2CCCC2)c1=O [Palbociclib] (partner 0.5 µM)
Outline: (§1)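 Each reported value is a median over duplicate plates. It expresses relative viability: treated-well nuclei count divided by vehicle-well nuclei count. Lung cancer cell lines in 1536-well plates were dosed by pin tool a day after seeding, alone with one drug or with a fixed anchor-drug dose plus five library-drug doses (not always all listed) in √10 steps, and nuclei were counted after 5 days.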

[2] = compound: CC1=CN2C(=O)C=C(N=C2C(=C1)C(C)NC3=CC=CC=C3)N4CCOCC4 [TGX 221] + Nc1ncn([C@H]2C[C@H](O)[C@@H](CO)O2)c(=O)n1 [Decitabine] (partner 2 µM)
Outline: as §1

[3] = compound: O=C(CCCCCCNC(=O)c1cnc(N(c2ccccc2)c2ccccc2)nc1)NO [Ricolinostat] + O=C(CCCCCCC(=O)Nc1ccccc1)NO [Vorinostat] (partner 1 µM)
Outline: as §1

[4] = compound: CC1=CN2C(=O)C=C(N=C2C(=C1)C(C)NC3=CC=CC=C3)N4CCOCC4 [TGX 221] + Cc1nc(NC(=O)N2CCC[C@H]2C(N)=O)sc1-c1ccnc(C(C)(C)C(F)(F)F)c1 [Alpelisib] (partner 2 µM)
Outline: as §1

Cell Line	relative viability ([1]; first compound 0.08 µM)	relative viability ([1]; first compound 0.253 µM)	relative viability ([1]; first compound 0.8 µM)	relative viability ([1]; first compound 2.53 µM)	relative viability ([2]; first compound 0.08 µM)	relative viability ([2]; first compound 0.253 µM)	relative viability ([2]; first compound 0.8 µM)	relative viability ([2]; first compound 2.53 µM)	relative viability ([2]; first compound 8 µM)	relative viability ([3]; first compound 0.08 µM)	relative viability ([3]; first compound 0.253 µM)	relative viability ([3]; first compound 0.8 µM)	relative viability ([3]; first compound 2.53 µM)	relative viability ([4]; first compound 0.08 µM)	relative viability ([4]; first compound 0.253 µM)	relative viability ([4]; first compound 0.8 µM)	relative viability ([4]; first compound 2.53 µM)	relative viability ([4]; first compound 8 µM)
HARA	0.269	0.288	0.238	0.248	0.604	0.488	0.529	0.504	0.433	0.496	0.446	0.377	0.373	0.778	0.659	0.803	0.574	0.584
NCI-H727	0.645	0.627	0.705	0.683	0.826	0.822	0.796	0.864	0.915	1.13	1.15	1.08	0.936	0.591	0.436	0.484	0.557	0.513
NCI-H1944	0.332	0.307	0.309	0.297		0.449	0.442	0.443	0.389	0.493	0.539	0.488	0.422	0.77	0.713	0.554	0.488	0.422
COR-L 105	0.401	0.396	0.387	0.476	0.651	0.609	0.628	0.649	0.596	0.794	0.825	0.643	0.7	1.02	0.838	0.697	0.609	0.361
201T	0.362	0.356	0.36	0.369	0.831	0.85	0.844	0.871	0.873	0.818	0.951	0.959	0.843		0.942	0.943	0.872	0.827
NCI-H460	0.184	0.191	0.0967	0.0766	0.488	0.442	0.489	0.453	0.401	0.594	0.677	0.573	0.194	0.386	0.295	0.274	0.167	0.137
LOU-NH91		0.526	0.587	0.514	0.821	0.763	0.785	0.802	0.788		0.955	0.782	0.755	0.69	0.706	0.682	0.697	0.575
NCI-H2170	0.388	0.405	0.385	0.354	0.403	0.464	0.441	0.438	0.495	0.774	0.744	0.737	0.501	0.754	0.704	0.747	0.7	0.682
LU99A	0.43	0.399	0.396	0.355	0.861	0.842	0.852	0.937	0.997	0.513	0.473	0.462	0.326	0.524	0.443	0.494	0.513	0.57
NCI-H358	0.151	0.147	0.173	0.165	0.22	0.216	0.209	0.181	0.203	0.599	0.633	0.482	0.34	0.723	0.75	0.828	0.85	0.726
SW 1573	0.387	0.434	0.337	0.357	0.457	0.387	0.535	0.517	0.524	0.554	0.667	0.751	0.49	0.63	0.495	0.577	0.433	0.393
LK-2	0.774	0.548	0.599	0.605	0.341	0.308	0.25	0.296	0.307	0.393	0.311	0.261	0.192	1.02	1.05	0.959	0.665	1
NCI-H1437	0.357	0.311	0.282	0.227	0.574	0.56	0.619	0.545	0.574	0.853	0.712	0.611	0.426	0.892	0.851	0.889	0.66	0.487
PC-3 [JPC-3]	0.533	0.499	0.518	0.487	0.749	0.802	0.826	0.815	0.898	0.505	0.854	0.448	0.669	1.01	0.978	1	0.929	0.894
NCI-H1395		0.603	0.662	0.702	0.712	0.685	0.662	0.615	0.614		0.833	0.468	0.674	0.935	1.16	0.89	0.514	0.584
NCI-H1651	0.499	0.512	0.512	0.542	0.524	0.675	0.492	0.594	0.601	0.459	0.594	0.411	0.395	0.83	0.742	0.77	0.716	0.498
NCI-H23	0.532	0.509	0.448	0.615	0.35	0.329	0.271	0.33	0.322	0.426	0.586	0.407	0.342	0.66	0.572	0.471	0.606	0.574
NCI-H661	0.426	0.381	0.415	0.364	0.537	0.529	0.56	0.564	0.505	0.68	0.716	0.722	0.558	0.45	0.52	0.201	0.559	0.516

From the supplement of paper PMC10307832
